The values that follow come from paper PMC8058344, “ARIH1 signaling promotes anti-tumor immunity by targeting PD-L1 for proteasomal degradation” (Nature Communications, 2021).

One assay has as its target KDR(VEGFR2) (Homo sapiens, UniProt P35968). Nature of the assay: In vitro kinase specificity profiling. The format is biochemical.
A further assay addresses HER2 (Homo sapiens, UniProt P04626). The experiment in a line: In vitro kinase specificity profiling. The format is biochemical.
A further assay deals with EGFR (Homo sapiens, UniProt P00533). Nature of the assay: In vitro kinase specificity profiling. The class given is biochemical. Conditions: EGFR wild-type.
EGFR, sequence (P00533 25-1210): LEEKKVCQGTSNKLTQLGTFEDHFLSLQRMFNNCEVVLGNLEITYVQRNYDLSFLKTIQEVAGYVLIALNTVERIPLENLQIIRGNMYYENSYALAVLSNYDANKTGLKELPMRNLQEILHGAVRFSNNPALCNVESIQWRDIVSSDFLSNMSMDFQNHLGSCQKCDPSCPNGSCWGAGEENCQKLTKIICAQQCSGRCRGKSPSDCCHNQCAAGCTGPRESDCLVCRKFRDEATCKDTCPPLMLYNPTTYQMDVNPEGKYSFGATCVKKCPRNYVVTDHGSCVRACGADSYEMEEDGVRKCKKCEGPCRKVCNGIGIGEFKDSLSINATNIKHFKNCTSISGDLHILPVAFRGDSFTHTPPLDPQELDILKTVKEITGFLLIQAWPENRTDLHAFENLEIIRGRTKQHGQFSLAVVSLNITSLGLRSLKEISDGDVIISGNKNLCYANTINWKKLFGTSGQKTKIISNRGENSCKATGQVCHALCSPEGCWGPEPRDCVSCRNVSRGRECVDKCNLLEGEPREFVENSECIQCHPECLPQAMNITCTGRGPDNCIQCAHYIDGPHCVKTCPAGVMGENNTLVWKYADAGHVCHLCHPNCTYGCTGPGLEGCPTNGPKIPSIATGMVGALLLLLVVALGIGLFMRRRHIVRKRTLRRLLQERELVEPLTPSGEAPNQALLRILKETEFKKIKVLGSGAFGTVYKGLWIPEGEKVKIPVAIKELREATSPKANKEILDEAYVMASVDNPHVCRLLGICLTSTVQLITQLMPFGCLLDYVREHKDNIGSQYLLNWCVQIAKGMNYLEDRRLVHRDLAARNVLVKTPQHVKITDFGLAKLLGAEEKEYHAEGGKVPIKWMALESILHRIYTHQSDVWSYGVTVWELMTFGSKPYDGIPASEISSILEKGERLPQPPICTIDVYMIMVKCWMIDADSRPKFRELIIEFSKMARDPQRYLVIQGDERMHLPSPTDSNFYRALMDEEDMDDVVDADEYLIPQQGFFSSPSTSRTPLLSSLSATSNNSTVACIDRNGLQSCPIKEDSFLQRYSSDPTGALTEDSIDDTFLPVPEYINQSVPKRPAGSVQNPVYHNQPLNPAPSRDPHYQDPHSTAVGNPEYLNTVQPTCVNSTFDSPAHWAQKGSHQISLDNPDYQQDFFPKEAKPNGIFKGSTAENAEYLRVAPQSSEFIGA
The next assay relates to PD-L1 in U937 cells. Nature of the assay: PD-L1 levels in U937 cells by western blotting and flow cytometry. As to conditions: western blotting and flow cytometry, 10 μM, 12 h. The format is cell-based, human. Here is the method:
Fig. 1 EGFR inhibitors were screened to reduce membrane PD-L1 levels. a High-throughput screening of 2125 FDA-approved drugs or drug candidates. U937 cells were incubated with IFNγ (100 ng/mL) for 48 h, treated with the drugs at 10 μM for 12 h. Ruxolitinib (Rux) was used as a positive control. The hit compounds that induced the decrease of PD-L1 levels are shown in blue. The depth of blue represents decreased level of PD-L1. The heatmap represents the targeted pathways obtained from the high-throughput screening, based upon decreased membrane PD-L1 level detected by flow cytometry. b Immunoblotting of PD-L1 in U937 cells treated with ES-072 (ES) or AZD9291 (AZD) at indicated concentrations for 12 h. ES and AZD are EGFR inhibitors. c, d Median fluorescence intensity (MFI) (c) and relative quantification (d) of PD-L1 in U937 cells treated with 10 μM ES-072 or 10 μM AZD9291 for 12 h. Data represent means ± SEM, n = 18, 6 independent repeats, ****P < 0.0001. e–g Immunoblotting (e, f) and flow cytometry (g) analysis of PD-L1 levels in U937 cells treated with 10 μM ES-072 or 10 μM AZD9291 for the indicated times. h, i Immunoblottings (h) of PD-L1 and β-TrCP, relative quantification (i) of PD-L1 MFI in H1975 cells transfected with non-targeting siRNA (si-CTRL) or β-TrCP siRNAs (si-β-TrCP) and treated with or without 10 μM ES-072/AZD9291 for 12 h. Data represent means ± SEM, n = 9, 3 independent repeats, NS: no significant; ****P < 0.0001. j–l Immunoblotting (j) and flow cytometry analysis (k) with relative quantification (l) of PD-L1 in H1975 cells treated with 10 μM ES-072 or AZD9291, and/or 5 μM LY2090314 (LY) for 12 h. LY is a GSK3 inhibitor. […]
For western blot analysis, cells were collected and washed with PBS, then lysed in radioimmunoprecipitation assay (RIPA) buffer (1% Triton X-100, 100 mM Tris-HCl pH 8.8, 100 mM NaCl, 0.5 mM EDTA). […] The supernatant was collected and the protein concentration was measured by bicinchoninic acid reaction. […] Signals were detected using chemiluminescence reagents (#4AW001-500, 4A649 Biotech, Co.). […]
(Immunoblotting shows a protein as a band on a membrane.)

In the next assay the target is PDGFRa (Homo sapiens, UniProt P16234). The experiment in a line: In vitro kinase specificity profiling. The format is biochemical.
PDGFRa, sequence (P16234 24-1089, species assumed): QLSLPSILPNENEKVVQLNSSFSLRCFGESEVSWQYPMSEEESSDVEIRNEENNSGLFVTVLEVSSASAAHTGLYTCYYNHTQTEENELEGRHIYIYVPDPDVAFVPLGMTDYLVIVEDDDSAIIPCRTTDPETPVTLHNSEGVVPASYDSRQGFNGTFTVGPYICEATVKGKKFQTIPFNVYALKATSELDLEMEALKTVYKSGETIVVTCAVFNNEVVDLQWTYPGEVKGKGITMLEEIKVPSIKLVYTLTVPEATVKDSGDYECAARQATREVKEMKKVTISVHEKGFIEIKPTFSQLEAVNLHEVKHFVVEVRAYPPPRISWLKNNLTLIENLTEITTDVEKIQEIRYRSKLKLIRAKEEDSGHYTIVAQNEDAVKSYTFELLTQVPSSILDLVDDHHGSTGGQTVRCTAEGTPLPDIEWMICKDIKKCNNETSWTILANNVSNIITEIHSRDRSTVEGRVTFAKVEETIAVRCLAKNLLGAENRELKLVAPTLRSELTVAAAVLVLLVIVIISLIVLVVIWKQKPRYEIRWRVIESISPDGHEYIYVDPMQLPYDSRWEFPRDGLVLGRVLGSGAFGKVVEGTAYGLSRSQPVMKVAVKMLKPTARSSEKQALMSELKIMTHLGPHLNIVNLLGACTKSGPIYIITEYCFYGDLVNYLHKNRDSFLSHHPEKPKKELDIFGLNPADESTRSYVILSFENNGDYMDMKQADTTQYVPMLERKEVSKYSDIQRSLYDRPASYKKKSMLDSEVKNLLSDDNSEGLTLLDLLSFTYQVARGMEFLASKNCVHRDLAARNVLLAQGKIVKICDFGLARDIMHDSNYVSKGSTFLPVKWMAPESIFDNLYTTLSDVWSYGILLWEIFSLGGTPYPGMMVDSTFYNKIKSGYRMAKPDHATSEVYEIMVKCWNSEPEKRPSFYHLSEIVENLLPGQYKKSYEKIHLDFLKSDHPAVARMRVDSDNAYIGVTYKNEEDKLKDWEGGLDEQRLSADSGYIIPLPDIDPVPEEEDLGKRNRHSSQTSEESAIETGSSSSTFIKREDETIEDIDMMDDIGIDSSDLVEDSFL

KDR(VEGFR2), sequence (P35968 20-1356, species assumed): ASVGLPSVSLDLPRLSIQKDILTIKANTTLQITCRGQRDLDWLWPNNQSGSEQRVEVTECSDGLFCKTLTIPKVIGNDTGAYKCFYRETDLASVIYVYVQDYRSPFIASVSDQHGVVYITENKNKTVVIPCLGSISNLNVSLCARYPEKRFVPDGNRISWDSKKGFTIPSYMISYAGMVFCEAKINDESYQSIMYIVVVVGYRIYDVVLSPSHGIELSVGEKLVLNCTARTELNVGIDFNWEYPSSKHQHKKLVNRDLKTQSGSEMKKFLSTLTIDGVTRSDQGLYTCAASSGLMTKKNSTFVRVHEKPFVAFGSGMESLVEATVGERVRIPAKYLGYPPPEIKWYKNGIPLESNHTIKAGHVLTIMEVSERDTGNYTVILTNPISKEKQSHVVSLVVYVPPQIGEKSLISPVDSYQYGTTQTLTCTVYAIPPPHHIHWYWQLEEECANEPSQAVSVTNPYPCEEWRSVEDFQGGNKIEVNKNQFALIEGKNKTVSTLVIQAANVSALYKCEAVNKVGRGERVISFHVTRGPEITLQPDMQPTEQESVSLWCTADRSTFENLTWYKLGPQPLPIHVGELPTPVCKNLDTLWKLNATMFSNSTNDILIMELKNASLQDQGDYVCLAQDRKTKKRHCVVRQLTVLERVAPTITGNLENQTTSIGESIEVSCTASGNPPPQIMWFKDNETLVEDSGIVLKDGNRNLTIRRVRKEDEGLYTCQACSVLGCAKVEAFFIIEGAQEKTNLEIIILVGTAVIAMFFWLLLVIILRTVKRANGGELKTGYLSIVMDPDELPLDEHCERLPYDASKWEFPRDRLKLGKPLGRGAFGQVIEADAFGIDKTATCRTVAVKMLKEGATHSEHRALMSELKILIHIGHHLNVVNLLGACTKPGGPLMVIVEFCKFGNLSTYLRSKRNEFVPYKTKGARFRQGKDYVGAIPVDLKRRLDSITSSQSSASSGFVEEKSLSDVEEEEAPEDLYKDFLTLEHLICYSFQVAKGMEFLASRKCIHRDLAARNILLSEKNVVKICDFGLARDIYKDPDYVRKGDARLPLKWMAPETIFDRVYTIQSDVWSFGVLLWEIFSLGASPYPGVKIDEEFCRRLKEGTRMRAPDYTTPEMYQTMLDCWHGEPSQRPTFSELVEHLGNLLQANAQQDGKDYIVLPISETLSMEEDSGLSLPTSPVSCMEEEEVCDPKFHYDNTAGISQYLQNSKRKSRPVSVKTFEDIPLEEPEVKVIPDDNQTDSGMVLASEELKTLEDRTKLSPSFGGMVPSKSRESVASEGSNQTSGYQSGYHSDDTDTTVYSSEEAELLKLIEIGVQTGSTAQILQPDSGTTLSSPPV
HER2, sequence (P04626 23-1255, species assumed): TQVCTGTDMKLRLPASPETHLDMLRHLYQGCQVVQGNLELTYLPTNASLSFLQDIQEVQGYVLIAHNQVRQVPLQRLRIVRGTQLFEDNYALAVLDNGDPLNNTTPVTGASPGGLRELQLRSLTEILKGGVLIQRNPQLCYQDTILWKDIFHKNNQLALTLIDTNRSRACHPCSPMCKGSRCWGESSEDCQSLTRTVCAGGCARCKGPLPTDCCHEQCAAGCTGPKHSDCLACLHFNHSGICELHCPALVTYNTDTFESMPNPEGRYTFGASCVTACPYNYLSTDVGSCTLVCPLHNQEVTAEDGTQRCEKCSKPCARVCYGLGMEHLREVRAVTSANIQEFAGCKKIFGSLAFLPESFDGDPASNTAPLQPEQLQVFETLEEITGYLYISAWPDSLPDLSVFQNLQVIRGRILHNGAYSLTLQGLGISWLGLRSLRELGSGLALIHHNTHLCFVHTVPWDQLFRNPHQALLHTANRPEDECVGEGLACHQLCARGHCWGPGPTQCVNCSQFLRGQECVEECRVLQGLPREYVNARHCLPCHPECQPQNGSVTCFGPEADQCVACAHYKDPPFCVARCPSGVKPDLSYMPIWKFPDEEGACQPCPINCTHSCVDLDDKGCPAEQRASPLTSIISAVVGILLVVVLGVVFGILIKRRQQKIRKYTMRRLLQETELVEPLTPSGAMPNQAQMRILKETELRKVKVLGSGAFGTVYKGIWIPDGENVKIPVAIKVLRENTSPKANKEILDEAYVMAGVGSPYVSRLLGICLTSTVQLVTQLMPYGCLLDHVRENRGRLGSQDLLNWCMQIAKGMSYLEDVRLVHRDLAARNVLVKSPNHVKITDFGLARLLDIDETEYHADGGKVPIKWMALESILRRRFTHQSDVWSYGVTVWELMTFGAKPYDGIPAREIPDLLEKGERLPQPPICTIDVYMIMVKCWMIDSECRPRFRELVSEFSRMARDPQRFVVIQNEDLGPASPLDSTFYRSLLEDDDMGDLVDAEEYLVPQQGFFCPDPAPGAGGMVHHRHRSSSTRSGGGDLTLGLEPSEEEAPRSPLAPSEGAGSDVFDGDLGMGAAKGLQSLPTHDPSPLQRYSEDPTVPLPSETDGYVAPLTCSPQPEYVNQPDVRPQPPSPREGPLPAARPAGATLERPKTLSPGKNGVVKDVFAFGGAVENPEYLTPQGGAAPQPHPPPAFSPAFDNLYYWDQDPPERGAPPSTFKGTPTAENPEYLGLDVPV

Take `C=CC(=O)Nc1cccc(Nc2nc(Nc3ccc(N4CCN(C)CC4)nc3OC)ncc2C(F)(F)F)c1` [ES-072]: the IC50 is 5230 nM against KDR(VEGFR2), 147 nM against HER2, 8.9 nM against EGFR and 3850 nM on PDGFRa. For the same compound, the “IFNγ-induced membranal PD-L1 levels” value in the assay on PD-L1 in U937 cells was “dramatically reduced”.

As a reminder, the IC50 is the concentration at which inhibition is half-maximal.
